Assay results reported in patent publication US20240216317A1, “COMPOSITION FOR PREVENTING, AMELIORATING OR TREATING INFLAMMATORY BOWEL DISEASE COMPRISING COMPOUND ISOLATED FROM ISODON EXCISUS AS EFFECTIVE COMPONENT” (HEALINNOLS INC., priority 2022, published 2024).

System: IL-1β
Assay: IL-1β mRNA expression (qPCR) in zebra fish animal model of DSS-induced inflammatory bowel disease
Format: in vivo, zebra fish (Danio rerio: AB)
Conditions: zebra fish larvae, 0.5% DSS, 5 hours treatment; Chemical formula 1 0.3 μM and 1 μM; FIG. 5
Protocol: As a zebra fish animal model of inflammatory bowel disease, wild-type zebra fish (Danio rerio: AB) was used, which was kept in an exclusive breeding facility at conditions including light/dark cycle of 14 hours/10 hours and temperature of 28° C. All the animal experiments were carried out according to the protocol of Ethics Committee for Animal Expectation, Healinno-LS (Registration No.: AEC-20210720-0001), and all the materials were sterilized first before they are used for experiment.
According to a treatment with 0.5% DSS (dextran sulfate sodium, M.W. 36,000-50,000, #160110, MP), which induces “ulcerative colitis” as inflammatory bowel disease by creating a damage in colonic epithelial cells, a zebra fish was induced to have inflammatory bowel disease. Then, by threating the zebra fish with the compound represented by Chemical formula 1 of the present invention at different concentrations (0.3 μM and 1 μM), inhibitory activity on inflammatory bowel disease was examined. […]
The zebra fish larvae which have been treated with the compound represented by Chemical formula 1 of the present invention were then added with TRIzol reagent (300 μl), and then homogenized by using a tissue homogenizer (G20, GINKO). […] Purity and concentration were measured by using a microplate reader (FLUOstar omega, BMG Labtech), and the extracted total RNA was kept at −80° C. […]

COC(=O)C[C@H](OC(=O)/C=C/c1ccc(O)c(O)c1)c1ccc(O)c(O)c1 [Compound 1, 3-[3,4-dihydroxyphenyl]acrylic acid 1-[3,4-dihydroxyphenyl]-2-methoxycarbonylethyl ester]
expression amount of IL-1β compared to DSS model group: statistically significantly lower

Nc1ccc(O)c(C(=O)O)c1 [Compound 5-ASA, 5-aminosalicylic acid, reference compound]
expression amount of IL-1β compared to DSS model group: statistically significantly lower
